One block for each compound: values may come before it.
System: LG0703-F948-PDC complex spheroid viability
Test: Anticancer human tumor LG0703-F948-PDC patient-derived lung adenocarcinoma cell line growth inhibition [RAS]
Conditions: for IC50: curve of first compound; for viability, T/C: stronger effect = lower value
Excerpt: RAS pathway inhibitors in Combinations in Complex Spheroids
A high-throughput screen of multi-cell type tumor spheroids was designed to identify active combinations of RAS pathway inhibitors and targeted small molecules. Complex spheroids include a stromal component modeled by human endothelial cells (HUVEC) and fibroblasts modeled by human mesenchymal stem cells (MSCs). The concentration ranges selected for each drug and investigational agent were based upon clinically achievable concentrations if the clinical Cmax of the agent was known.
Compounds. The drugs and investigational agents: abemaciclib (NSC768073), cobimetinib (NSC768068), divarasib (GDC6063, NSC841802), docetaxel (NSC628503), GDC-1971 (RLY-1971, NSC841576), gemcitabine (NSC613327), inavolisib (NSC800729), ipatasertib (NSC767898), KB-0742 (NSC834161), MRTX-1133 (NSC836407), osimertinib (NSC779217), RMC-4630 (NSC839698), RMC-6236 (NSC851965), RMC-6291 (NSC852671), Ro-3306 (NSC812927), sapanisertib (NSC764658), SN-38 (NSC673596), staurosporine (NSC755774), SY5609 (NSC837396), and tovorafenib (DAY101, NSC766906), were obtained from the National Cancer Institute (NCI) Developmental Therapeutics Program Chemical Repository. The FDA-approved anticancer drug set is available from the NCI Developmental Therapeutics Program. […] The stock solutions were prepared in dimethyl sulfoxide (DMSO, Sigma-Aldrich, St. Louis, MO, cat. D2650) at 800-fold the tested concentration and stored at -70 degrees C prior to their use. All drugs and investigational agents were tested over a range starting from a high concentration at or near the clinical Cmax and decreasing in half-log increments. If the clinical Cmax for an agent had not been determined, the highest concentration tested was 10 microM.
Cell Culture. All cells were maintained in an incubator at 37 degrees C and 5% CO2 with 95% humidity. The PDC lines were cultured according to standard operating procedures established by the NCI PDMR. All PDCs were thawed and cultured in Matrigel-coated flasks prepared with a working solution of 1X Ham's F-12 nutrient mix, without supplementation (Invitrogen, Waltham, MA, cat. 11765054), 100 U/mL penicillin-streptomycin (Invitrogen, cat. 15140122), and 2.5% Matrigel (Corning Inc., Corning, NY, cat. 354248) for the first three passages. The 362531-283-R-J2-PDC and 782815-120-R-J1-PDC lines were cultured in 6C/Colon 1B media, which includes advanced DMEM/F-12 (Thermo Fisher Scientific, cat. 12634028), 10 mM HEPES (Thermo Fisher Scientific, cat. 15630080), 1X GlutaMAX supplement (Thermo Fisher Scientific, cat. 35050061), 0.1 mg/mL primocin (InvivoGen, San Diego, CA, cat. ant-pm-2), 10% defined fetal bovine serum, heat inactivated (HyClone Laboratories Inc., Logan, UT, cat. SH30070.03HI), 50% L-WRN conditioned media (ATCC, cat. CRL-3276), 1.25 mM N-Acetyl-L-cysteine (Sigma-Aldrich, cat. A9165), 10 mM nicotinamide (Sigma-Aldrich, cat. N0636), 1X B-27 supplement (Thermo Fisher Scientific, cat. 17504044), 1X N-2 supplement (Thermo Fisher Scientific, cat. 17502048), 50 ng/mL human EGF (Thermo Fisher Scientific, cat. PHG0311), and 10 microM Y-27632 dihydrochloride (Tocris Bioscience, cat. 1254). The K12877-001-R-J1-PDC line was cultured in 6I media, which includes all 6C/Colon 1B media plus 10 ng/mL human FGF-10 (PeproTech, cat. 100-26), 1 ng/mL human FGF-2 (PeproTech, cat. 100-18B), 1 µM prostaglandin E2 (Tocris Bioscience, cat. 2296), […] hydrocortisone (Sigma-Aldrich, cat. H4001), and […] bovine insulin (Sigma-Aldrich, cat. I6634). The K86415-001-R-J1-PDC line was cultured in 6D media, which includes all 6C/Colon 1B media components minus the L-WRN conditioned media. The 485176-168-R4-J1-PDC was cultured in PANC media, which includes all 6C/Colon 1B media plus 100 ng/mL human FGF-10 (PeproTech, cat. 100-26), 500 nM SB-431542 (Selleckchem, cat. S1067), and 10 nM gastrin (Tocris Bioscience, cat. 3006). […]
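Further: spheroids exposed to agents for 7 days.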
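Wherever viability, T/C is given: 100% = DMSO vehicle wells.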

IC50 (second compound 0.0316 µM): > 1000 nM
IC50 (second compound 0.1 µM): > 1000 nM
IC50 (second compound 0.316 µM): > 1000 nM
IC50 (second compound 1 µM): > 1000 nM
IC50 (second compound 3.16 µM): > 1000 nM
IC50 (second compound 10 µM): 7.25 nM
SMILES: CCN1CCN(Cc2ccc(Nc3ncc(F)c(-c4cc(F)c5nc(C)n(C(C)C)c5c4)n3)nc2)CC1 + C#Cc1c(F)ccc2cc(O)cc(-c3ncc4c(N5CC6CCC(C5)N6)nc(OCC56CCCN5CC(F)C6)nc4c3F)c12
viability, T/C (second compound 0.0316 µM, first compound 0.00316 µM): 114%
viability, T/C (second compound 0.0316 µM, first compound 0.01 µM): 84%
viability, T/C (second compound 0.0316 µM, first compound 0.0316 µM): 78.3%
viability, T/C (second compound 0.0316 µM, first compound 0.1 µM): 92.2%
viability, T/C (second compound 0.0316 µM, first compound 0.316 µM): 82.7%
viability, T/C (second compound 0.0316 µM, first compound 1 µM): 79.8%
viability, T/C (second compound 0.1 µM, first compound 0.00316 µM): 119%
viability, T/C (second compound 0.1 µM, first compound 0.01 µM): 90.3%
viability, T/C (second compound 0.1 µM, first compound 0.0316 µM): 92.1%
viability, T/C (second compound 0.1 µM, first compound 0.1 µM): 90.5%
viability, T/C (second compound 0.1 µM, first compound 0.316 µM): 74%
viability, T/C (second compound 0.1 µM, first compound 1 µM): 69.7%
viability, T/C (second compound 0.316 µM, first compound 0.00316 µM): 103%
viability, T/C (second compound 0.316 µM, first compound 0.01 µM): 99.5%
viability, T/C (second compound 0.316 µM, first compound 0.0316 µM): 84.5%
viability, T/C (second compound 0.316 µM, first compound 0.1 µM): 81.1%
viability, T/C (second compound 0.316 µM, first compound 0.316 µM): 75.5%
viability, T/C (second compound 0.316 µM, first compound 1 µM): 70%
viability, T/C (second compound 1 µM, first compound 0.00316 µM): 84%
viability, T/C (second compound 1 µM, first compound 0.01 µM): 77.7%
viability, T/C (second compound 1 µM, first compound 0.0316 µM): 68.5%
viability, T/C (second compound 1 µM, first compound 0.1 µM): 68.7%
viability, T/C (second compound 1 µM, first compound 0.316 µM): 77.6%
viability, T/C (second compound 1 µM, first compound 1 µM): 64.1%
viability, T/C (second compound 3.16 µM, first compound 0.00316 µM): 73.2%
viability, T/C (second compound 3.16 µM, first compound 0.01 µM): 71.9%
viability, T/C (second compound 3.16 µM, first compound 0.0316 µM): 56.8%
viability, T/C (second compound 3.16 µM, first compound 0.1 µM): 57%
viability, T/C (second compound 3.16 µM, first compound 0.316 µM): 71.3%
viability, T/C (second compound 3.16 µM, first compound 1 µM): 45%
viability, T/C (second compound 10 µM, first compound 0.00316 µM): 62.5%
viability, T/C (second compound 10 µM, first compound 0.01 µM): 44.3%
viability, T/C (second compound 10 µM, first compound 0.0316 µM): 47.7%
viability, T/C (second compound 10 µM, first compound 0.1 µM): 47.5%
viability, T/C (second compound 10 µM, first compound 0.316 µM): 49.5%
viability, T/C (second compound 10 µM, first compound 1 µM): 36.9%

IC50 (second compound 0.000949 µM): > 1000 nM
IC50 (second compound 0.003 µM): > 1000 nM
IC50 (second compound 0.00949 µM): < 3.16 nM
IC50 (second compound 0.03 µM): < 3.16 nM
IC50 (second compound 0.0949 µM): < 3.16 nM
IC50 (second compound 0.3 µM): < 3.16 nM
SMILES: CCN1CCN(Cc2ccc(Nc3ncc(F)c(-c4cc(F)c5nc(C)n(C(C)C)c5c4)n3)nc2)CC1 + CCn1c(-c2cc(N3CCN(C)CC3)cnc2C(C)OC)c2c3cc(ccc31)-c1csc(n1)CC(NC(=O)C1CC1C)C(=O)N1CCCC(N1)C(=O)OCC(C)(C)C2
viability, T/C (second compound 0.000949 µM, first compound 0.00316 µM): 82%
viability, T/C (second compound 0.000949 µM, first compound 0.01 µM): 68%
viability, T/C (second compound 0.000949 µM, first compound 0.0316 µM): 60.8%
viability, T/C (second compound 0.000949 µM, first compound 0.1 µM): 68.2%
viability, T/C (second compound 0.000949 µM, first compound 0.316 µM): 63.9%
viability, T/C (second compound 0.000949 µM, first compound 1 µM): 52%
viability, T/C (second compound 0.003 µM, first compound 0.00316 µM): 58.2%
viability, T/C (second compound 0.003 µM, first compound 0.01 µM): 49.1%
viability, T/C (second compound 0.003 µM, first compound 0.0316 µM): 47.7%
viability, T/C (second compound 0.003 µM, first compound 0.1 µM): 53.2%
viability, T/C (second compound 0.003 µM, first compound 0.316 µM): 57%
viability, T/C (second compound 0.003 µM, first compound 1 µM): 48.9%
viability, T/C (second compound 0.00949 µM, first compound 0.00316 µM): 26.1%
viability, T/C (second compound 0.00949 µM, first compound 0.01 µM): 24.8%
viability, T/C (second compound 0.00949 µM, first compound 0.0316 µM): 28.4%
viability, T/C (second compound 0.00949 µM, first compound 0.1 µM): 22%
viability, T/C (second compound 0.00949 µM, first compound 0.316 µM): 31.7%
viability, T/C (second compound 0.00949 µM, first compound 1 µM): 34.5%
viability, T/C (second compound 0.03 µM, first compound 0.00316 µM): 17%
viability, T/C (second compound 0.03 µM, first compound 0.01 µM): 14.6%
viability, T/C (second compound 0.03 µM, first compound 0.0316 µM): 14.7%
viability, T/C (second compound 0.03 µM, first compound 0.1 µM): 17%
viability, T/C (second compound 0.03 µM, first compound 0.316 µM): 18.6%
viability, T/C (second compound 0.03 µM, first compound 1 µM): 26.2%
viability, T/C (second compound 0.0949 µM, first compound 0.00316 µM): 10.1%
viability, T/C (second compound 0.0949 µM, first compound 0.01 µM): 11.1%
viability, T/C (second compound 0.0949 µM, first compound 0.0316 µM): 10.2%
viability, T/C (second compound 0.0949 µM, first compound 0.1 µM): 11.3%
viability, T/C (second compound 0.0949 µM, first compound 0.316 µM): 14.9%
viability, T/C (second compound 0.0949 µM, first compound 1 µM): 23.9%
viability, T/C (second compound 0.3 µM, first compound 0.00316 µM): 9.56%
viability, T/C (second compound 0.3 µM, first compound 0.01 µM): 9.57%
viability, T/C (second compound 0.3 µM, first compound 0.0316 µM): 8.56%
viability, T/C (second compound 0.3 µM, first compound 0.1 µM): 10.3%
viability, T/C (second compound 0.3 µM, first compound 0.316 µM): 13.5%
viability, T/C (second compound 0.3 µM, first compound 1 µM): 18.3%
